Data as given in US11596632B2, “JAK1 pathway inhibitors for the treatment of gastrointestinal disease” (Incyte Corporation, priority 2018, dated 2023).
pIC50: −log10 of the molar value. Entries after “also recorded” stand apart in the source; their conditions may differ.

What was measured:
JAK2 (a.a. 828-1132) = JAK2 (a.a. 828-1132) (Homo sapiens (Human), UniProt O60674); experiment: In vitro JAK kinase assay (HTRF), JAK2 relative to JAK1; assay type: biochemical; details: IC50 ratio, 1 mM ATP
Procedure: The catalytic activity of JAK1, JAK2 or JAK3 was assayed by measuring the phosphorylation of a biotinylated peptide. The phosphorylated peptide was detected by homogenous time resolved fluorescence (HTRF). […] Reactions are carried out at room temperature for 1 hour and then stopped with 20 μL 45 mM EDTA, 300 nM SA-APC, 6 nM Eu-Py20 in assay buffer (Perkin Elmer, Boston, Mass.). Binding to the Europium labeled antibody takes place for 40 minutes and HTRF signal was measured on a Fusion plate reader (Perkin Elmer, Boston, Mass.).

[1] = tested on: IL-6 stimulated phosphorylation of STAT3 in PBMCs; experiment: IL-6 stimulated STAT3 phosphorylation in human PBMC; assay type: cell-based; details: read-out: in vitro IC50 for suppression of IL-6 stimulated phosphorylation of STAT3 in PBMCs (JAK1 inhibition)
Procedure: Two different assays can be used to understand the functional activity of JAK1 inhibition. The first is a standard cell based assay and the other using whole blood. The former is conducted using human peripheral blood mononuclear cells (PBMC); briefly, the cells are stimulated with IL-6 to increase JAK1 activity, which is measured via phosphorylated STAT3. As increasing concentrations of Compound 1 are added, a corresponding decrease in phosphorylated STAT3 is observed. This assay is appropriate to assess JAK1 activity and/or the inhibitory activity of Compound 1 in samples that are devoid of serum proteins, e.g., feces samples.

[2] = Quantitative autoradioluminography (QARL) of colon sections; assay type: in vitro ADME, human; details: ex vivo, 100 and 1000 nM apical, 1 h
Procedure: Intestinal tissue permeation studies were performed using a vertical Ussing diffusion chamber system (Harvard Apparatus, Holliston, Mass.) for healthy tissues. Frozen tissues were thawed to ambient temperature and rinsed with pre-warmed KRB buffer used for dose formulation before being gently placed on the apparatus. Permeation was carried out mucosal-to-serosal at 37° C. for 1 hour with test article in KRB buffer added to the mucosal side. The receiver side of Ussing chamber containing blank KRB buffer was stirred with air bubbles by an aerator. Due to the limited availability of the samples, UC tissues were mounted (mucosal side up) on one end of a polypropylene tube with both ends cut open, and serosal side placed on blank KRB buffer in a vial with a stirring bar. KRB containing the test article was added into the tube and thus the mucosal side of the tissue was exposed to test article during the incubation. After 1 hour incubation at 37° C., samples (100-500 μL) were taken from both donor and receiver side, and then transferred to a 1.5 mL tube for evaluating the permeation. […]
All response curves determined for image analysis calibration were generated using a weighted 1st degree, polynomial, linear equation (1/MDC/mm^2). […]
The LLOQ was determined as 3 times the mean background for each panel. […]

[3] = tested on: TPO-induced STAT3 phosphorylation; experiment: Ex vivo TPO-induced STAT3 phosphorylation in dosed patients (marker of JAK2 inhibition); set-up: species or system human
Procedure: The systemic effects of Compound 1 have been studied in the auto-immune diseases RA and Ps. Inhibition of phosphorylation of STAT3 following stimulation with IL-6, a marker of AK1 inhibition, and TPO, a marker of JAK2 inhibition was measured in both studies. In patients with Ps doses of 100 mg QD, 200 mg QD, 200 mg BID, and 600 mg QD were studied.

[4] = tested on: oxazolone-induced colitis in BALB/c mice; experiment: Mouse oxazolone-induced colitis model; assay type: in vivo
[5] = Circulating and colon tissue drug concentrations in mice, oral vs intracolonic; assay type: in vivo, mouse
Excerpt: Preclinical models of IBD were established in BALB/c mice by intracolonic injection of 2,4,6-trinitrobenzene sulfonic acid (TNBS) or 4-ethoxymethylene-2-phenyl-2-oxazolin-5-one (oxazolone) to trigger an immune response, as described below. Body weight, stool consistency and fecal blood were scored. Additional readouts included colon weight to length ratio and histological evaluation. Blood was collected for pharmacokinetic analysis.
In a further study, quantification of circulating and tissue drug concentrations clearly differentiated the local versus systemic JAK1 target inhibition. […] In contrast, localized Compound 1 delivery was characterized by minimal peak systemic concentrations of approximately 0.04 μM but sustained exposure ≥0.45 μM in the colon tissue, as shown in FIG. 11D. Therefore, strategic targeting or release of JAK1 inhibitors within the inflamed gastrointestinal tissue can potentially achieve improved benefit-risk profiles.

[6] = localized intracolonic delivery (3 mg/kg)

JAK2 (a.a. 828-1132), sequence (O60674 828-1132): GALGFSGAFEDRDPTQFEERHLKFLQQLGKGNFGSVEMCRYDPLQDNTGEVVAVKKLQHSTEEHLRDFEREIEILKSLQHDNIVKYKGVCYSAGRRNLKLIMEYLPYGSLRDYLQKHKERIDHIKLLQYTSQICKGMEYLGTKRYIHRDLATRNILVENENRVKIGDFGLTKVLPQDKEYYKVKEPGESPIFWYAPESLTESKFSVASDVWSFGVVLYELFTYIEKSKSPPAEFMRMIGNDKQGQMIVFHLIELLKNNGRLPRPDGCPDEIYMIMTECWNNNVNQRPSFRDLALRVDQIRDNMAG

N#CCC1(n2cc(-c3ncnc4[nH]ccc34)cn2)CN(C2CCN(C(=O)c3ccnc(C(F)(F)F)c3F)CC2)C1 [Compound 1, {1-{1-[3-Fluoro-2-(trifluoromethyl)isonicotinoyl]piperidin-4-yl}-3-[4-(7H-pyrrolo[2,3-d]pyrimidin-4-yl)-1H-pyrazol-1-yl]azetidin-3-yl}acetonitrile]
JAK2/JAK1 (JAK2 (a.a. 828-1132)): >10
pIC50 [1]: 7.24
penetration into colon tissue layers [2]: penetrated into the mucosal layer and, to a lesser extent, submucosal layer in a concentration dependent manner
TPO induced pSTAT3 inhibition ([3]; RA patients, 100 mg QD to 600 mg QD, Cycle 1 Day 15): general trend of increasing TPO induced pSTAT3 inhibition
inhibition of pSTAT3 in response to TPO ([3]; psoriasis patients, 100 mg QD, 200 mg QD, and 200 mg BID): no significant inhibition of pSTAT3
colon shortening ([4]; 3 mg/kg IC BID): significantly ameliorated colon shortening; also recorded: significantly (p<0.05) reduced colon shortening
macroscopic tissue pathology ([4]; 30 mg/kg BID oral): ameliorating macroscopic tissue pathology
normalized colon weight (inflammatory swelling) ([4]; 30 mg/kg BID oral): reducing normalized colon weight
recovery from diarrhea and rectal bleeding (symptoms) ([4]; 30 mg/kg BID oral): reduces symptoms; also recorded: efficacious in accelerating recovery from diarrhea and rectal bleeding
colon shortening ([4]; 30 mg/kg PO BID): significantly ameliorated colon shortening; also recorded: significant (p<0.05) reduction in colon shortening
stool consistency and fecal occult blood scoring ([4]; twice daily, orally or intracolonically, vs vehicle): significantly ameliorated stool consistency and reduced fecal occult blood scoring
systemic drug exposure relative to JAK1 IC50 ([5]; intracolonic doses): below JAK1 IC50
peak systemic concentrations [5, 6]: approximately 0.04 μM
sustained exposure in the colon tissue [5, 6]: ≥ 0.45 µM
peak circulating drug level ([5]; oral dosing (30 mg/kg)): approximately 11 μM
